{"source": "paper PMC6628362", "about": "“A New Strategy for Glioblastoma Treatment: In Vitro and In Vivo Preclinical Characterization of Si306, a Pyrazolo[3,4-d]Pyrimidine Dual Src/P-Glycoprotein Inhibitor” (Cancers, 2019)", "key": {"U87-TxR cells": {"tested_on": "U87-TxR cells", "assay": "Reversal of paclitaxel resistance, MTT combination treatment", "type": "cell-based, Human", "details": "0.2 µM of the compound, 72 h", "experimental": "MTT assay was used to assess the viability of U87 and U87-TxR cells (AppliChem GmbH, Taufkirchen, Germany). After reaching the confluence in 25 cm^2 tissue flasks, U87 and U87-TxR cells were trypsinized. Cells were seeded at the optimal density determined in initial experiments: 4000 cell/well into flat-bottomed 96-well tissue culture plates. Following the overnight incubation, cells were treated with Si306, pro-Si306 and dasatinib (1–25 µM) for 72 h. In addition, the combined effects of Si306 and pro-Si306 with PTX were evaluated in MDR GBM cells. To that end, two concentrations of Si306 and pro-Si306 (0.2 μM and 0.5 μM) were combined with increasing concentrations of PTX (0.1–2 μM) in simultaneous treatment. The sensitization of U87-TxR cells to PTX was studied after 72 h. Briefly, MTT was added to each well in a final concentration of 0.2 mg/mL for 4 h to induce the formation of the formazan in cells with intact/viable mitochondria. Then, produced formazan was dissolved in DMSO, and the absorbance was measured at 540 nm on a microplate reader (LKB 5060-006 Micro Plate Reader, Vienna, Austria). IC50 values were calculated by nonlinear regression analysis using GraphPad Prism 6.0 for Windows (GraphPad Software, La Jolla, CA, USA)."}, "CYP3A4": {"target": "T1, CYP3A4 (Homo sapiens, UniProt P08684)", "T1 construct": "Incubations were carried out in a mix containing human liver microsomes (1 mg/mL of protein); from tissue; host or cells: human liver microsomes", "T1 sequence (P08684 whole entry, canonical isoform)": "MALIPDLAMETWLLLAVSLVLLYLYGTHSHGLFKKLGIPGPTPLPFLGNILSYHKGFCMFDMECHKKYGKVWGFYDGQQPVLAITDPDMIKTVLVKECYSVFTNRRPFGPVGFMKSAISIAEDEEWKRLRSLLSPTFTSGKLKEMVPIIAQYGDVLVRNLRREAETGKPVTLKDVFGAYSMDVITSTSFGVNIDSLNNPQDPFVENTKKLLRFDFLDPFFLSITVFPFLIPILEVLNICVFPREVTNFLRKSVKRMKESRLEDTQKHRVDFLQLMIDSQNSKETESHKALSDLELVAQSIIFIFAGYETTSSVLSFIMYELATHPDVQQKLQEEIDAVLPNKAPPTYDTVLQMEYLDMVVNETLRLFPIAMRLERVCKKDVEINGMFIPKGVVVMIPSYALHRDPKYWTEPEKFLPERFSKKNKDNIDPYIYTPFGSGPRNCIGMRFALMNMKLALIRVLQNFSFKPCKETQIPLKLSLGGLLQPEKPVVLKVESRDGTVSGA", "assay": "CYP3A4 inhibition in human liver microsomes (testosterone 6β-hydroxylation)", "type": "in vitro ADME", "experimental": "The inhibition of cytochrome P450 3A4 isoform by Si306 and pro-Si306 was measured by determining its activity on the substrate testosterone.\nThe activity of CYP3A4 was evaluated by measuring the 6β-hydroxylated testosterone formation (CYP3A4-specific reaction). The amount of 6β-hydroxylated metabolite was assessed in the absence and presence of Si306, pro-Si306 and ketoconazole (testosterone concentration of 100 μM in phosphate buffer 0.025 M, pH 7.4). […] Ketoconazole was used as standard selective inhibitor of CYP3A4 isoenzyme. Incubations were carried out in a mix containing human liver microsomes (1 mg/mL of protein) in phosphate buffer 0.025 M, pH 7.4, NADPH (200 μM) previously solubilized in a MgCl2 48 mM solution. The final incubation volume was 0.25 mL. After a 40 min-incubation period at 37 °C, the reaction was stopped by adding 1 mL of acetonitrile in the presence of corticosterone 2 μM as internal standard. The samples were centrifuged for 20 min at 5000 rpm. Concentrations of testosterone and its metabolite 6β-hydroxytestosterone were assessed by the HPLC method with UV detection. Calibration curve for quantitative analysis of 6β-hydroxytestosterone in the samples was obtained using commercial 6β-hydroxytestosterone purchased from Sigma Aldrich. For the statistical analysis, GraphPad InStat 3.0 (GraphPad Software, San Diego, CA, USA) was used."}, "P-gp": {"target": "P-gp (Homo sapiens, UniProt P08183)", "sequence (P08183 whole entry)": "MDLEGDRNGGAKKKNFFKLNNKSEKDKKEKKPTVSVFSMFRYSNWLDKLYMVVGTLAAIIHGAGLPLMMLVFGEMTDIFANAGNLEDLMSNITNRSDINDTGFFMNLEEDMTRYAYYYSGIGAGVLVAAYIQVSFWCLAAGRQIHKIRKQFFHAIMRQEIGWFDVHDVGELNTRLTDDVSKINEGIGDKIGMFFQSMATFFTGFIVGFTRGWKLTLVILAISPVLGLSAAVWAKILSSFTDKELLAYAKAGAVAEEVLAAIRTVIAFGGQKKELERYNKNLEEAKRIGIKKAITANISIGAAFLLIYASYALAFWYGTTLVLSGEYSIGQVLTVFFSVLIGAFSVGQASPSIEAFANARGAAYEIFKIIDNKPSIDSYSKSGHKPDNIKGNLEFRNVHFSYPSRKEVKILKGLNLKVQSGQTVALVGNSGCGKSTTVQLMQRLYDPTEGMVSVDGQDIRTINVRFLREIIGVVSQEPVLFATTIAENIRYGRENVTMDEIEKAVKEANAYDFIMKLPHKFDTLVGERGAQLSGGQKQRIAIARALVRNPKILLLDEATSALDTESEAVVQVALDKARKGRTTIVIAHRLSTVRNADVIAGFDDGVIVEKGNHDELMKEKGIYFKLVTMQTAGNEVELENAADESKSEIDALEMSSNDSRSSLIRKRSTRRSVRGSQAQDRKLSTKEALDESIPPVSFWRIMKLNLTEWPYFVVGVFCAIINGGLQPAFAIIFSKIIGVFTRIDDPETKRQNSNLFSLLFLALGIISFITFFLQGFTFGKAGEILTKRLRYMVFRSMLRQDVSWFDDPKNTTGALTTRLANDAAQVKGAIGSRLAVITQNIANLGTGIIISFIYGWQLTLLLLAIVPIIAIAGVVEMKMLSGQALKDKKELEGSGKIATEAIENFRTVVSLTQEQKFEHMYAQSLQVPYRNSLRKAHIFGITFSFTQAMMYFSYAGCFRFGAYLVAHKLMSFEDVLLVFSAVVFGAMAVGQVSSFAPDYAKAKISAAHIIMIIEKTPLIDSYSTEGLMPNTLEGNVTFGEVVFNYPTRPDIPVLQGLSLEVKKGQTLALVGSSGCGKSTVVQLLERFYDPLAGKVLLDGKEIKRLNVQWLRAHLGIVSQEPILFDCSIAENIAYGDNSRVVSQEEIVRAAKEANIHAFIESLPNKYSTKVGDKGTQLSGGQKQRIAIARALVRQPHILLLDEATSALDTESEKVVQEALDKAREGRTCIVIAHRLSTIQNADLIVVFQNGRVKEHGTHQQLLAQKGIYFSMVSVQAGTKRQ", "assay": "Rho 123 accumulation assay (P-gp inhibition) in U87-TxR cells", "details": "30 min", "protocol": "At the end of the accumulation period, the cells were pelleted by centrifugation, washed with PBS and placed in cold PBS. The samples were kept on ice in a dark setting until the analysis on CyFlow Space Partec flow-cytometer (Sysmex Partec GmbH, Germany). […] A minimum of 10,000 events was assayed for each sample and the obtained results were analyzed using Summit Dako Software (ver. 4.3, Fort Collins, CO, USA)."}}, "note": "Entries after “also recorded” stand apart in the source; their conditions may differ.", "data": [{"compound": "ClC(Cn1ncc2c(Nc3cccc(Br)c3)nc(SCCN3CCOCC3)nc21)c1ccccc1", "note": "(centres unmarked) [Si306]", "values": [{"measurement": "Relative Reversal of PTX resistance", "setting": "U87-TxR cells", "value": "1.16 ^ns"}, {"measurement": "inhibition at 40 min, 50 μM", "setting": "CYP3A4; pH 7.4, probe testosterone 100 μM (6β-hydroxylation), highest concentration used (1–50 μM range), not significative, read-out: maximum inhibition of CYP3A4 (testosterone 6β-hydroxylation)", "value": 20, "unit": "%"}, {"measurement": "interaction with CYP3A4", "setting": "CYP3A4; up to 50 μM", "value": "do not interact with CYP3A4"}, {"measurement": "P-gp activity (Rho 123 intracellular accumulation)", "setting": "P-gp; 5 µM", "value": "considerably inhibited P-gp activity; also recorded: significant suppression of P-gp activity"}, {"measurement": "IC50", "setting": "P-gp; IC50 of P-gp inhibition, Rho 123 accumulation", "value": 8.5, "unit": "µM"}]}]}
